Laboratory results published in patent publication US6194411A, “3(2H)-pyridazinone derivatives and pharmaceutical compositions containing these compounds” (priority 1995, dated 2001).
Like-named read-outs stand apart in the source and are kept apart here.

How the values were obtained:
[1] = background; cited from earlier work
[2] = system: diastolic pressure; assay: phenylephrine-induced diastolic blood pressure increase in anaesthetized cats; assay type: in vivo, cat; settings: for ED50: Felis catus, iv., anaesthetized cat, phenylephrine 15 μg/kg/min, read-out: ED50 diastolic pressure (dose decreasing by 50% the diastolic total pressure increased by phenylephrine); for influence on other cardiovascular parameters (in words): doses that diminish the intraurethral pressure
Excerpt: (§1) In an in vivo animal model, in anaesthetized cat, intraurethral hypertension can be induced by α1 -adrenoceptor agonists [e.g. phenylephrine, which is chemically (-)-1-(3-hydroxyphenyl)-2-(methylamino)ethanol]. This hypertension-inducing effect can be antagonized by α1 -adrenoceptor antagonists. The antihypertensive effect is expressed by reduction of the diastolic pressure. Results of this experiment are summarized in Table 1 (the experiment is described in detail in the Pharmacological part).
^b Dose decreasing by 50% the diastolic total pressure increased by
(§2) Effect on the intraurethral and diastolic blood pressure on anaesthetized cats
(§3) This investigation was performed according to the method of Lefevre et al. [Br. J. Pharmacol. 109, 1282 (1993)]. The essence of the method can be summarized as follows.
(§4) Cannules were introduced into the femoral artery and vein of pentobarbitone-anaesthetized, artificially ventilated cats of both sexes weighing 2.5 to 3.5 kg for administration of the compounds and measurement of blood pressure. The bladder was exposed by lower median laporotomy and a catheter was introduced into the urethra through the trigonum. The arterial and intraurethral pressures were registered on a Hellige polygraph by using a pressure transducer.
(§5) For excluding autonomic effects mediated not through α-adrenoceptors,mecamylamine, atropine and propranolol were administered intravenously in doses of 0.5, 0.75 and 0.5 mg/kg, respectively.
(§6) An increase in intraurethral and blood pressure was induced by phenylephrine infusion of 15 μg/kg/min; the change over the baseline pressure was considered to be 100%. The test substances were administered intravenously in 1-1000 μg/kg cumulative bolus doses. An interval of at least 5 minutes was allowed after each dose. The dose of α-antagonist inhibiting by 50% the phenylephrine-induced increase in urethral pressure ([…] uretha) as well as the dose […] by 50% the phenylephrine-induced diastolic total pressure elevation (ED50 diastolic value) were determined.

[3] = system: phenylephrine-induced intraurethral hypertension; assay: phenylephrine-induced intraurethral hypertension in anaesthetized cats; assay type: in vivo, cat; settings: for ED50: Felis catus, phenylephrine 15 μg/kg/min intravenous, read-out: ED50 urethra (dose decreasing by 50% the hypertension induced by phenylephrine); for ED50 / D/U: ED50 (diastolic pressure)/ED50 (urethra): iv., anaesthetized cat; for D/U: ED50 (diastolic pressure)/ED50 (urethra): urogenital selectivity; for urogenital selectivity (in words): in vivo
Excerpt: as §1
^a Dose decreasing by 50% the hypertension induced by a 15 μg/kg/min
as §2, §3, §4, §5, §6

[4] = system: α1-adrenoceptor (mesenteric artery); assay: isolated organ: postsynaptic α1-adrenoceptor antagonism on mesenteric artery; parameters: species or system rat; settings: agonist phenylephrine; 37° C; 30-minute incubation with antagonist
Protocol: (§7) In addition, investigations were performed on blood vessel and human hyperplasic prostate tissue preparations. In these experiments, a mesenteric artery was used as a model of resistance vessels which affect the blood pressure. We measured the extent of inhibition of the compounds of the invention and that of the reference drugs, respectively, on the contraction-inducing action of the α1 -agonist (phenylephrine).The α1 -adrenoceptor antagonism was then characterized by pA2 values.
(§8) α1 -Adrenoceptor antagonistic effect in isolated organ experiments
A) Investigation of postsynaptic α1 -adrenoceptors on the rate mesenteric artery
This test was performed according to the method of Angus et al. [J. Physiol.

[5] = system: α1-adrenoceptor (human hyperplasic prostate tissue); assay: isolated organ: postsynaptic α1-adrenoceptor antagonism on human hyperplasic prostate tissue; settings: for Selectivity (prostate/artery): antilogarithmic ratio of pA2 value, human prostate vs rat mesenteric artery; for α1-adrenoceptor antagonistic effect (in words): Table 2 data, prostate tissue and resistance artery
Protocol: as §7, §8
(§9) B) Investigation of postsynaptic α1 -adrenoceptors on human prostate preparation
(§10) This test was performed according to the method of Scheu-Eei Yu et al. [Eur. J. Pharmacol. 252, 29 (1994)].
(§11) Strips prepared from human hyperplasic prostate tissue were suspended in a Krebs solution bubbled with carbogen at 37° C. A pre-tension of 1 g and an equilibration period of 1 hour were used. A dose-effect curve was established for phenylephrine. Then, after washing out and incubation with the antagonist for 30 minutes, the dose/effect curve was again determined. For characterizing the antagonistic effects, pA2 values were calculated.

[6] = target: T1, α1-adrenoceptor (human hyperplasic prostate tissue) (Homo sapiens, UniProt P35348); assay: as above; settings: agonist phenylephrine; 37° C; 30 minutes incubation with antagonist; read-out: pA2 human hyperplasic prostate tissue (converted)
T1 construct: Strips prepared from human hyperplasic prostate tissue; from tissue; host or cells: human hyperplastic prostate strips
T1 sequence (P35348 1-466): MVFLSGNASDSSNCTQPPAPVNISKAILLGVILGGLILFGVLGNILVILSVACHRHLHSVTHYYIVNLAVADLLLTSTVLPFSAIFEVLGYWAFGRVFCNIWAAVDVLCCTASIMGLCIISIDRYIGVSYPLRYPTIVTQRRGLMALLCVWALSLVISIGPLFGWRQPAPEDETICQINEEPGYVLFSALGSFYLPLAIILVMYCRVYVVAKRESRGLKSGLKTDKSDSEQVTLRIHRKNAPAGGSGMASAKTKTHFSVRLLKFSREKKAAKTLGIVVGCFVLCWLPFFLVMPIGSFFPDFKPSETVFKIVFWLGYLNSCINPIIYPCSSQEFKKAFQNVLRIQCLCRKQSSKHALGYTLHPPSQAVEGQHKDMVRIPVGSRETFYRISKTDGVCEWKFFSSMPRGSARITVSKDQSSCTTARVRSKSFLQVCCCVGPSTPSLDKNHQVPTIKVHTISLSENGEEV
Protocol: as §7, §8, §9, §10, §11

[7] = target: T2, postsynaptic α2-adrenoceptor (vena saphena) (Canis lupus familiaris, UniProt A0A8I3Q7S8); assay: postsynaptic α2-adrenoceptor antagonism in dog vena saphena preparation
T2 construct: Postsynaptic α2 -adrenoceptor antagonism in dog vena saphena preparation; from tissue; host or cells: dog saphenous vein
T2 sequence (A0A8I3Q7S8 1-427): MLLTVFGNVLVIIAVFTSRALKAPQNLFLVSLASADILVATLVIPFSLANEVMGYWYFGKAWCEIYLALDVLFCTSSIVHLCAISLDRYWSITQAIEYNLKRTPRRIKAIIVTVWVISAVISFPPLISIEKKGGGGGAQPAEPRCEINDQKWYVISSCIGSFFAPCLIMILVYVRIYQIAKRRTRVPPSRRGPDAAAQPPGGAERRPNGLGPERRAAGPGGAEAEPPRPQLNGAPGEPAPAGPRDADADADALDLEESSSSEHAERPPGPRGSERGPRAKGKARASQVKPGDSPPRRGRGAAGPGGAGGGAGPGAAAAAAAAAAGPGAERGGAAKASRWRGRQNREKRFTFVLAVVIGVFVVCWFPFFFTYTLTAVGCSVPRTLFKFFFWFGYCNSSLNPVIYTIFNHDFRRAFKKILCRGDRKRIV
Protocol: (§12) The antagonism was characterized by the pA2 values.
(§13) B) Postsynaptic α2 -adrenoceptor antagonism in dog vena saphena preparation
(§14) This investigation was carried out by the method of Fowler et al. [J. Pharmcol.
(§15) β-Adrenoceptors were inactivated with propranolol. […] After 30 minutes, the organs were incubated with the […] for 30 minutes. Also here, the antagonism was characterized by the pA2 values.

[8] = system: postsynaptic α2-adrenoceptor (vena saphena); assay: as above; settings: for selectivity toward the postsynaptic α2-receptors (in words) / α2-adrenoceptor antagonistic activity (in words): Table 3 data; for Selectivity postsynaptic/presynaptic: antilogarithmic ratio of pA2 values, dog vena saphena vs rat vas deferens
Protocol: as §12, §13, §14, §15

[9] = toxicity (statement, no test described)
[10] = target: T3, presynaptic α2-adrenoceptor (vas deferens) (Rattus norvegicus, UniProt P22909); assay: presynaptic α2-adrenoceptor antagonism on rat vas deferens preparation; settings: agonist xylazine, 35° C, electrically stimulated, read-out: pA2 presynaptic (converted)
T3 construct: Vas deferents were isolated from SPRD rats; from tissue; host or cells: vas deferens of SPRD rats, electrically stimulated
T3 sequence (P22909 1-465): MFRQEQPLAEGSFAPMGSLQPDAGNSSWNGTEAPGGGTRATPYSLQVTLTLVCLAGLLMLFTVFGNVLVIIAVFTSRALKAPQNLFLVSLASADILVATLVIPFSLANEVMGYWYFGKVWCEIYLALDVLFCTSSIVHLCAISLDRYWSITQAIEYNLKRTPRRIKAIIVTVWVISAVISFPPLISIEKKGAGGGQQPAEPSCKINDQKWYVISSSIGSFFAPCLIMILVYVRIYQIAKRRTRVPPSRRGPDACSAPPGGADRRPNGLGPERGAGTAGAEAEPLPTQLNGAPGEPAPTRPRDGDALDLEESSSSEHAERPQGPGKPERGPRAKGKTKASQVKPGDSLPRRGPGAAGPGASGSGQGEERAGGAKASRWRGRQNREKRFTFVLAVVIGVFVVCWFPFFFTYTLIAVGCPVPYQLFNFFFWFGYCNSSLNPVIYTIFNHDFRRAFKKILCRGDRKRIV
Protocol: as §12
Pre- and postsynaptic α1 -adrenoceptor antagonistic effects
A) Presynaptic α2 -adrenoceptor antagonism on the rat vas deference preparation
Briefly, the experiment was performed as follows.
Vas deferents were isolated from SPRD rats according to Vizi et al. [N. S. Arch. Pharmcol.
A dose/effect curve was determined for xylazine. Then, after washing out, the organ was incubated with the antagonist. The dose/effect curve was taken again with xylazine in the presence of the antagonist. The antagonism was characterized by the pA2 value determined according to the method of Arunlakshana and Schield [Br. J. Pharmcol.

[11] = dog vena saphena, agonist UK 14304, 30 minutes incubation, read-out: pA2 postsynaptic (converted)

## COc1cc2nc(N3CCN(C(=O)c4ccco4)CC3)nc(N)c2cc1OC [Prazosin, reference compound]
[1]
  urogenital selectivity of available drugs (in words): low or moderate
[2]
  ED50: 0.025 mg/kg
[3]
  ED50: 0.0187 mg/kg
  D/U: ED50 (diastolic pressure)/ED50 (urethra): 1.3

## O=c1cccnn1CCCNCC1COc2ccccc2O1 (racemic) [(3), 2-[3-([1,4]benzodioxan-2-ylmethylamino)-1-propyl]-3(2H)-pyridazinone, reference compound]
[2]
  ED50: 0.13 mg/kg
[3]
  ED50: 0.0284 mg/kg
  D/U: ED50 (diastolic pressure)/ED50 (urethra): 4.6
[4]
  pA2 rat mesenteric artery: 7.16
[5]
  Selectivity (prostate/artery): 2.24
[6]
  Kb: 30.9 nM

## COC(=O)[C@@H]1[C@H]2C[C@H]3c4[nH]c5ccccc5c4CCN3C[C@@H]2CC[C@@H]1O [Yohimbine, reference compound]
[7]
  Kb: 8.91 nM

## COc1cc2nc(N(C)CCCNC(=O)C3CCCO3)nc(N)c2cc1OC (stereo not shown) [Alfuzosin]
[4]
  pA2 rat mesenteric artery: 8.60

## O=c1cccnn1CCCNC[C@@H]1COc2ccccc2O1 [(1), R-2-[3-([1,4]-benzodioxan-2-ylmethylamino)-1-propyl]-3(2H)-pyridazinone]
[7]; [11]
  Kb: 13.5 nM
[8]
  selectivity toward the postsynaptic α2-receptors (in words): excellent selectivity toward the postsynaptic α2 -receptors
  α2-adrenoceptor antagonistic activity (in words): strong α2 -adrenoceptor antagonistic activity
  Selectivity postsynaptic/presynaptic: 115.0
[2]
  ED50: > 0.888 mg/kg
  influence on other cardiovascular parameters (in words): very weak influence only on other cardiovascular parameters
[3]
  ED50: 0.0139 mg/kg
  urogenital selectivity (in words): significant urogenital selectivity
  D/U: ED50 (diastolic pressure)/ED50 (urethra): > 63.9
[9]
  toxicity (in words): low toxicity
[10]
  Kb: 1550 nM
[4]
  pA2 rat mesenteric artery: 6.56
[5]
  α1-adrenoceptor antagonistic effect (in words): strong α1 -adrenoceptor antagonistic effect
  Selectivity (prostate/artery): 4.37
[6]
  Kb: 63.1 nM

## COc1cc2nc(N3CCN(C(=O)C4CCCO4)CC3)nc(N)c2cc1OC (stereo not shown) [Terazosin]
[4]
  pA2 rat mesenteric artery: 8.45

## O=c1cccnn1CCCNC[C@H]1COc2ccccc2O1 [(2)]
[7]; [11]
  Kb: 7.24 nM
[8]
  selectivity toward the postsynaptic α2-receptors (in words): excellent selectivity toward the postsynaptic α2 -receptors
  α2-adrenoceptor antagonistic activity (in words): strong α2 -adrenoceptor antagonistic activity
  Selectivity postsynaptic/presynaptic: 21.4
[2]
  ED50: 0.09 mg/kg
  influence on other cardiovascular parameters (in words): very weak influence only on other cardiovascular parameters
[3]
  ED50: 0.0034 mg/kg
  urogenital selectivity (in words): significant urogenital selectivity
  D/U: ED50 (diastolic pressure)/ED50 (urethra): 26.5
[9]
  toxicity (in words): low toxicity
[10]
  Kb: 155 nM
[4]
  pA2 rat mesenteric artery: 7.68
[5]
  α1-adrenoceptor antagonistic effect (in words): strong α1 -adrenoceptor antagonistic effect
  Selectivity (prostate/artery): 3.55
[6]
  Kb: 5.89 nM
